Data set [1] has as its system Photobacterium phosphoreum. The conditions noted are these: cited from earlier work.
Another data set deals with Beef Heart Mitochondria. Particulars: cited from earlier work.
The next data set has as its system Fish. The conditions noted are these: at 96 hr; cited from earlier work.
A further data set concerns actin-cofilin complex. In words: Native PAGE gel analysis of actin-cofilin complex. In kind it is binding. Particulars: for Effective (E50) concentration, disappearance of the actin-cofilin band: native PAGE gels, 25 μM actin-cofilin complex, metal mass without counter ions. The protocol:
Four heavy metal ions (Cd, Cu, Hg and Zn) were examined over the concentration range 1-1000 μg L^−1.
Combinations of actin, cofilin and DNaseI were mixed at equimolar concentrations (˜20-25 μm) in a Eppendorf tube and incubated for 15 min at 22° C. Actin, cofilin, DNaseI and their complexes were then separated on a 10% w/v native gel. […] Instead, the rate of migration is determined by the ratio of charge to volume. Actin (MT 43 kDa) has a net negative charge.

The subject of data set [2] is Sub-mitochondrial Particle (SMP). The conditions noted are these: cited from earlier work.
A further data set relates to DNA/EtBr complex. In words: DNA/EtBr fluorescence emission in solution. In kind it is binding. Particulars: 5 μg/ml DNA, 2 μg/ml EtBr. The protocol:
The fluorescence emission of DNA-dye ligands such as ethidium bromide (EtBr) are examined spectroscopically in solution.
Changes in fluorescence intensity were noticeable at 2 μM.

SMILES strings stand for the structures.

Take `[Cd+2]` [Cd^2+]: the “Microtox mean lethal concentration” value in data set [1] is 41400 µg/L. Besides, the “Effective (E50) concentration, BHM” value in the data set on Beef Heart Mitochondria was 158 µg/L. Also, in the data set with Fish, the “Effective (E50) concentration, Fish” value was 630 µg/L. Also, the “Effective (E50) concentration, disappearance of the actin-cofilin band” value (“Effective … of the actin-cofilin band” for short) in the data set on actin-cofilin complex was in the range of 800 to 1200 µg/L. In addition, the “Effective (E50) concentration, SMP” value in data set [2] was 520 µg/L.
For `[Cu+2]` [Cu^2+], in data set [1], the “Microtox mean lethal concentration” value was 9300 µg/L. Further, the “Effective (E50) concentration, BHM” value in the data set with Beef Heart Mitochondria was 93 µg/L. The “Effective (E50) concentration, Fish” value in the data set with Fish was 530 µg/L. Also, the “Effective … of the actin-cofilin band” value in the data set on actin-cofilin complex lay within 400 to 600 µg/L. Also, in the data set on actin-cofilin complex (native gel), the “Concentration at which the actin-cofilin complex is first noticeably affected” value is “approximately 200 μg L^−1”. The “Effective (E50) concentration, SMP” value in data set [2] is 300 µg/L.
As to `[Cl][Hg][Cl]` [HgCl2], the “Concentration at which changes in fluorescence intensity were noticeable” value in the data set on DNA/EtBr complex came out at 2 µM. For the same compound, the “Concentration range of concentration-dependent quenching of fluorescent signal” value in the data set on DNA/EtBr complex (excitation 520 nm) was in the range of 1 to 100 µM.
Regarding `[Cl-].[Cl-].[Zn+2]` [Zn^2+, ZnCl2], the “Microtox mean lethal concentration” value in data set [1] was 33000 µg/L. In addition, the “Effective (E50) concentration, BHM” value in the data set with Beef Heart Mitochondria was 80 µg/L. For the same compound, the “Effective (E50) concentration, Fish” value in the data set on Fish was 2990 µg/L. For the same compound, in the data set on actin-cofilin complex (250-2500 μg L^−1), the “Density of the actin-cofilin complex” value was “decreased the density of the actin-cofilin complex”. The “Effective … of the actin-cofilin band” value with actin-cofilin complex lay within 900 to 1000 µg/L. Further, the “Effective (E50) concentration, SMP” value in data set [2] is 1700 µg/L.
